Here are results for 20 compounds from patent US9045493B2, “Furo[3,2-b]- and thieno[3,2-b]pyridin derivatives” (Merck Patent GmbH, priority 2012, dated 2015).

Test [1] deals with T1, TANK binding kinase (TBK1) (Homo sapiens, UniProt Q9UHD2).
T1 sequence (Q9UHD2 1-729): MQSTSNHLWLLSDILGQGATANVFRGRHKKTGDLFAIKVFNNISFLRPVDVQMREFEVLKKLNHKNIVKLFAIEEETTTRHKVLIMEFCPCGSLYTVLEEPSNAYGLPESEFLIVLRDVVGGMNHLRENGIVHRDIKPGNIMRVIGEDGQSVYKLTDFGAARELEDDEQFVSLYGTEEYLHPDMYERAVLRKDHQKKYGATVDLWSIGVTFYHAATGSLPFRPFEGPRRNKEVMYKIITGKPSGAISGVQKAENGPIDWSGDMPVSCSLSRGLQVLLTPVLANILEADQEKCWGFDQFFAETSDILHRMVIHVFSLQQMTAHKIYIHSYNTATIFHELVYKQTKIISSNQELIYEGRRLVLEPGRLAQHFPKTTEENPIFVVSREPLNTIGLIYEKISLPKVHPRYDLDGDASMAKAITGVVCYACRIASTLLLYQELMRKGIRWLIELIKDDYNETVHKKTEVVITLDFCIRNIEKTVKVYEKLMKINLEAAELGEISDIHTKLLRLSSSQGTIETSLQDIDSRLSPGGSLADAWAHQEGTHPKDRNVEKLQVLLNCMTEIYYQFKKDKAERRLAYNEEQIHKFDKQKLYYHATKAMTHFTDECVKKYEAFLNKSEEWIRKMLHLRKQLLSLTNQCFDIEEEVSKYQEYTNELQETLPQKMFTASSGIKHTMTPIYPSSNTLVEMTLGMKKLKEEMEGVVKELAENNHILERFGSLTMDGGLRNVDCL
Briefly: TBK1 enzyme assay (384-well Flashplate kinase assay). In kind it is biochemical. To be noted: 10 μM ATP, 120 Min at 30° C. Here is the method: The kinase assay is performed as 384-well Flashplate assay (for e.g. Topcount measurement.
0.6 nM TANK binding kinase (TBK1), 800 nM biotinylated MELK-derived peptide (Biotin-Ah-Ah-[…]) and 10 μM ATP (spiked with 0.25 μCi ^33P-ATP/well) are incubated in a total volume of 50 μl (10 mM MOPS, 10 mM Mg-acetat, 0.1 mM EGTA, 1 mM DTT, 0.02% Brij35, 0.1% BSA, pH 7.5) with or without test compound for 120 Min at 30° C. The reaction is stopped with 25 μl 200 mM EDTA. After 30 Min at room temperature the liquid is removed and each well washed thrice with 100 μl 0.9% sodium chloride solution. Nonspecific reaction is determined in presence of 100 nM Staurosporine. Radioactivity is measured in a Topcount (PerkinElmer). Results (e.g. IC50-values) are calculated with program tools provided by the IT-department (e.g. AssayExplorer, Symyx).

Test [2] addresses T2, IKKε (Homo sapiens, UniProt Q14164).
T2 sequence (Q14164 1-716): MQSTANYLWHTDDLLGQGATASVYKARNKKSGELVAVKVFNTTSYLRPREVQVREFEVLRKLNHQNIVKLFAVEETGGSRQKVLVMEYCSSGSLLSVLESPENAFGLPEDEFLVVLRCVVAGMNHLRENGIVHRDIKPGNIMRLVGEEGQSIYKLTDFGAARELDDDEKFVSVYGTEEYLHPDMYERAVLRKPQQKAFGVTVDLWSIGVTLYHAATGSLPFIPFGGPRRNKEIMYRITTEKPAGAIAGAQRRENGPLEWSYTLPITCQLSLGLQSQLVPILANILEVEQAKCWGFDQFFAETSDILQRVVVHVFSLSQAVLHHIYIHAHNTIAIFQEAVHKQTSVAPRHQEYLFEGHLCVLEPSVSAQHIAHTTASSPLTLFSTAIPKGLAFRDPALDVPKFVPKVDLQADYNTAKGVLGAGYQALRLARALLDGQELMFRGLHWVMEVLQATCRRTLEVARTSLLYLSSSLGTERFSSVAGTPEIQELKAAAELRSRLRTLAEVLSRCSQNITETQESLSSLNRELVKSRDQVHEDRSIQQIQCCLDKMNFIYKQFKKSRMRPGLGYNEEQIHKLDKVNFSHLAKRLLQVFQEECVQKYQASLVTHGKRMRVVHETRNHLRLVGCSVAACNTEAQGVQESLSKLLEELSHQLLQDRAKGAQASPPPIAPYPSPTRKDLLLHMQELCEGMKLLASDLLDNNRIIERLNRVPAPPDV
Nature of the test: IKKε kinase assay (384-well Flashplate). In kind it is biochemical. The conditions noted are these: 10 μM ATP, 2 hours at 30° C.; read-out: IKKε enzyme assay IC50. Here is the method: The kinase assay is performed either as 384-well Flashplate assay (for e.g. Topcount measurement).
1 nM IKKε, 800 nM biotinylated IκBα(19-42) peptide (Biotin-C6-C6-[…]) and 10 μM ATP (spiked with 0.3 μCi ^33P-ATP/well) are incubated in a total volume of 50 μl (10 mM MOPS, 10 mM Mg-acetat, 0.1 mM EGTA, 1 mM Dithiothreitol, 0.02% Brij35, 0.1% BSA, 0.1% BioStab, pH 7.5) with or without test compound for 2 hours at 30° C. The reaction is stopped with 25 μl 200 mM EDTA. After 30 Min at room temperature the liquid is removed and each well washed thrice with 100 μl 0.9% sodium chloride solution. […] Radioactivity is measured with Topcount (PerkinElmer). Results (e.g. IC50-values) are calculated with program tools provided by the IT-department (e.g. AssayExplorer, Symyx).

As a reminder, the IC50 is the concentration that inhibits the measured activity by half.

With `COCCNC(=O)c1ccc(-c2cc3nccc(-c4ccc(OC5CCOCC5)c(C#N)c4)c3o2)cc1` [Compound A22, 4-{7-[3-cyano-4-(tetrahydro-pyran-4-yloxy)-phenyl]-furo[3,2-b]pyridin-2-yl}-N-(2-methoxy-ethyl)-benzamide], the IC50 in test [1] and in test [2] was 300 to 3000 nM in each case.
`CN(C)C(=O)c1ccc(-c2cc3nccc(-c4ccc(OC5CCOCC5)c(C#N)c4)c3o2)cc1` [Compound A23, 4-{7-[3-cyano-4-(tetrahydro-pyran-4-yloxy)-phenyl]-furo[3,2-b]pyridin-2-yl}-N,N-dimethyl-benzamide]: the IC50 in test [1] and in test [2] was less than 300 nM in each case.
As for `CCN(C)C(=O)c1ccc(-c2cc3nccc(-c4ccc(OC5CCOCC5)c(C#N)c4)c3o2)cc1` [Compound A24, 4-{7-[3-cyano-4-(tetrahydro-pyran-4-yloxy)-phenyl]-furo[3,2-b]pyridin-2-yl}-N-ethyl-N-methyl-benzamide], the IC50 in test [1] and in test [2] was less than 300 nM each time.
In the case of `CN(CCO)C(=O)c1ccc(-c2cc3nccc(-c4ccc(OC5CCOCC5)c(C#N)c4)c3o2)cc1` [Compound A25, 4-{7-[3-cyano-4-(tetrahydro-pyran-4-yloxy)-phenyl]-furo[3,2-b]pyridin-2-yl}-N-(2-hydroxy-ethyl)-N-methyl-benzamide], the IC50 in test [1] and in test [2] was less than 300 nM in each case.
With `COCCN(C)C(=O)c1ccc(-c2cc3nccc(-c4ccc(OC5CCOCC5)c(C#N)c4)c3o2)cc1` [Compound A26, 4-{7-[3-cyano-4-(tetrahydro-pyran-4-yloxy)-phenyl]-furo[3,2-b]pyridin-2-yl}-N-(2-methoxy-ethyl)-N-methyl-benzamide], the IC50 in test [1] and in test [2] was less than 300 nM in each case.
Regarding `CCN(CCOC)C(=O)c1cccc(-c2cc3nccc(-c4ccc(OC5CCOCC5)c(C#N)c4)c3o2)c1` [Compound A26a, 3-{7-[3-cyano-4-(tetrahydro-pyran-4-yloxy)-phenyl]-furo[3,2-b]pyridin-2-yl}-N-ethyl-N-(2-methoxy-ethyl)-benzamide], the IC50 in test [1] and in test [2] was 300 to 3000 nM throughout.
As for `CN(C)CCNC(=O)c1ccc(-c2cc3nccc(-c4ccc(OC5CCOCC5)c(C#N)c4)c3o2)cc1` [Compound A27, 4-{7-[3-cyano-4-(tetrahydro-pyran-4-yloxy)-phenyl]-furo[3,2-b]pyridin-2-yl}-N-(2-dimethylamino-ethyl)-benzamide], the IC50 in test [1] and in test [2] was less than 300 nM in each case.
For the compound `CN(C)CCN(C)C(=O)c1ccc(-c2cc3nccc(-c4ccc(OC5CCOCC5)c(C#N)c4)c3o2)cc1` [Compound A28, 4-{7-[3-cyano-4-(tetrahydro-pyran-4-yloxy)-phenyl]-furo[3,2-b]pyridin-2-yl}-N-(2-dimethylamino-ethyl)-N-methyl-benzamide], the IC50 in test [1] and in test [2] was less than 300 nM in each case.
Turning to `COc1cc(-c2cc3nccc(-c4ccc(OC5CCOCC5)c(C#N)c4)c3o2)ccc1C(=O)N1CC2(COC2)C1` [Compound A30, 5-{2-[3-methoxy-4-(2-oxa-6-aza-spiro[3.3]heptane-6-carbonyl)-phenyl]-furo[3,2-b]pyridin-7-yl}-2-(tetrahydro-pyran-4-yloxy)-benzonitrile], the concentration for half-maximal inhibition (IC50) in test [1] and in test [2] was less than 300 nM in each case.
Turning to `CCN(CCN(C)C)C(=O)c1ccc(-c2cc3nccc(-c4ccc(OC5CCOCC5)c(C#N)c4)c3o2)cc1OC` [Compound A31, 4-{7-[3-cyano-4-(tetrahydro-pyran-4-yloxy)-phenyl]-furo[3,2-b]pyridin-2-yl}-N-(2-dimethylamino-ethyl)-N-ethyl-2-methoxy-benzamide], the IC50 in test [1] and in test [2] was less than 300 nM in each case.
Turning to `COc1cc(-c2cc3nccc(-c4ccc(OC5CCOCC5)c(C#N)c4)c3o2)ccc1C(=O)NCCN(C)C` [Compound A32, 4-{7-[3-cyano-4-(tetrahydro-pyran-4-yloxy)-phenyl]-furo[3,2-b]pyridin-2-yl}-N-(2-dimethylamino-ethyl)-2-methoxy-benzamide], the IC50 in test [1] and in test [2] was less than 300 nM each time.
For the compound `N#Cc1cc(-c2ccnc3cc(-c4ccc(C(=O)NCCO)cc4)oc23)ccc1OC1CCOCC1` [Compound A33, 4-{7-[3-cyano-4-(tetrahydro-pyran-4-yloxy)-phenyl]-furo[3,2-b]pyridin-2-yl}-N-(2-hydroxy-ethyl)-benzamide], the IC50 in test [1] and in test [2] was less than 300 nM throughout.
With `N#Cc1cc(-c2ccnc3cc(-c4ccc(C(=O)N5CCNCC5)cc4)oc23)ccc1OC1CCOCC1` [Compound A34, 5-{2-[4-(piperazine-1-carbonyl)-phenyl]-furo[3,2-b]pyridin-7-yl}-2-(tetrahydro-pyran-4-yloxy)-benzonitrile], the 50% inhibitory concentration (IC50) in test [1] and in test [2] was less than 300 nM each time.
In the case of `COc1cc(-c2cc3nccc(-c4ccc(OC5CCOCC5)c(C#N)c4)c3o2)ccc1C(=O)N1CCNCC1` [Compound A35, 5-{2-[3-methoxy-4-(piperazin-1-carbonyl)-phenyl]-furo[3,2-b]pyridin-7-yl}-2-(tetrahydro-pyran-4-yloxy)-benzonitrile], the IC50 in test [1] and in test [2] was less than 300 nM each time.
Turning to `N#Cc1cc(-c2ccnc3cc(-c4cnn(C5CCNCC5)c4)oc23)ccc1OC1CCOCC1` [Compound A36, 4-(4-{7-[3-Cyano-4-(tetrahydro-pyran-4-yloxy)-phenyl]-furo[3,2-b]pyridin-2-yl}-pyrazol-1-yl)-piperidin], the IC50 in test [1] and in test [2] was less than 300 nM throughout.
As to `CN1CCN(C(=O)c2ccc(-c3cc4nccc(-c5ccc(OCC6CCC6)c(C#N)c5)c4o3)cc2)CC1` [Compound A37], the IC50 in test [1] and in test [2] was less than 300 nM throughout.
In the case of `N#Cc1cc(-c2ccnc3cc(-c4ccc(C(=O)N5CCNCC5)cc4)oc23)ccc1OCC1CCC1` [Compound A38], the IC50 in test [1] and in test [2] was less than 300 nM each time.
Take `CN1CCN(C(=O)c2ccc(-c3cc4nccc(-c5ccc(OCC6CC6)c(C#N)c5)c4o3)cc2)CC1` [Compound A39]: the IC50 in test [1] and in test [2] was less than 300 nM each time.
With `N#Cc1cc(-c2ccnc3cc(-c4ccc(C(=O)N5CCNCC5)cc4)oc23)ccc1OCC1CC1` [Compound A40], the IC50 in test [1] and in test [2] was less than 300 nM each time.
Turning to `CN(CCO)C(=O)c1ccc(-c2cc3nccc(-c4ccc(OCC5CC5)c(C#N)c4)c3o2)cc1` [Compound A41], the concentration for half-maximal inhibition (IC50) in test [1] and in test [2] was less than 300 nM in each case.
